Test results: ChEMBL document CHEMBL3045472, “Synthesis and evaluation of some novel methylene-bridged aryl semicarbazones as potential anticonvulsant agents” (Med Chem Res, 2012)

Tested on: Mus musculus
Test: Anticonvulsant activity in Mus musculus albino (mouse) assessed as increase in onset of pentylenetetrazole-induced seizure at 220 mg/kg, ip administered 30 min followed by pentylenetetrazole induction measured for 30 min (reference value: 184 +/- 32 secs)
Assay type: functional
Details: route intraperitoneal

Row | Compound | Time [s]
1 | CCCC(CCC)C(=O)[O-].[Na+] [VALPROATE SODIUM] | 1207

Tested on: Mus musculus
Test: Anticonvulsant activity in Mus musculus albino (mouse) assessed as decrease in pentylenetetrazole-induced total seizure time at 300 mg/kg, ip administered 30 min followed by pentylenetetrazole induction measured for 30 min (reference value: 9.9 +/- 1.3 secs)
Assay type: functional
Details: route intraperitoneal

Row | Compound | Time [s]
2 | CCOc1ccc(NCC(=O)N/N=C/c2ccccc2Cl)cc1 | 9.3
3 | CCOc1ccc(NCC(=O)N/N=C/c2ccccc2[N+](=O)[O-])cc1 | 6.8
4 | CCOc1ccc(NCC(=O)N/N=C/c2ccc([N+](=O)[O-])cc2)cc1 | 5.2
5 | CCOc1ccc(NCC(=O)N/N=C/c2ccccc2O)cc1 | 6.4
6 | CCOc1ccc(NCC(=O)NN=C(C)C)cc1 | 4.2
7 | CCOc1ccc(NCC(=O)N/N=C(/C)c2ccccc2)cc1 | 5.8

Tested on: Mus musculus
Test: Anticonvulsant activity in Mus musculus albino (mouse) assessed as decrease in pentylenetetrazole-induced total seizure time at 50 mg/kg, ip administered 30 min followed by pentylenetetrazole induction measured for 30 min (reference value: 9.9 +/- 1.3 secs)
Assay type: functional
Details: route intraperitoneal

Row | Compound | Time [s]
8 | CCOc1ccc(NCC(=O)N/N=C/c2ccc([N+](=O)[O-])cc2)cc1 | 7.3
9 | CCOc1ccc(NCC(=O)N/N=C/c2ccccc2O)cc1 | 5.2

Tested on: Mus musculus
Test: Anticonvulsant activity in pentylenetetrazole-induced Mus musculus albino (mouse) seizure model assessed as survival at 220 mg/kg, ip administered 30 min followed by pentylenetetrazole induction measured for 30 min relative to control
Assay type: functional
Details: 0.5 h, route intraperitoneal

Row | Compound | survival at 220 mg/kg [%]
10 | CCCC(CCC)C(=O)[O-].[Na+] [VALPROATE SODIUM] | 100

Tested on: Mus musculus
Test: Anticonvulsant activity in pentylenetetrazole-induced Mus musculus albino (mouse) seizure model assessed as survival at 50 mg/kg, ip administered 30 min followed by pentylenetetrazole induction measured for 30 min relative to control
Assay type: functional
Details: 0.5 h, route intraperitoneal

Row | Compound | survival at 50 mg/kg [%]
11 | CCOc1ccc(NCC(=O)N/N=C/c2ccc([N+](=O)[O-])cc2)cc1 | 67
12 | CCOc1ccc(NCC(=O)N/N=C/c2ccccc2O)cc1 | 33

Tested on: Mus musculus
Test: Anticonvulsant activity in Mus musculus albino (mouse) assessed as decrease in pentylenetetrazole-induced total seizure time at 220 mg/kg, ip administered 30 min followed by pentylenetetrazole induction measured for 30 min (reference value: 9.9 +/- 1.3 secs)
Assay type: functional
Details: route intraperitoneal

Row | Compound | Time [s]
13 | CCCC(CCC)C(=O)[O-].[Na+] [VALPROATE SODIUM] | 2.3

Tested on: Mus musculus
Test: Anticonvulsant activity in pentylenetetrazole-induced Mus musculus albino (mouse) seizure model assessed as death time at 100 mg/kg, ip administered 30 min followed by pentylenetetrazole induction measured for 30 min (reference value: 416 +/- 58.2 secs)
Assay type: functional
Details: route intraperitoneal

Row | Compound | Time [s]
14 | CCOc1ccc(NCC(=O)N/N=C/c2ccccc2Cl)cc1 | 1189
15 | CCOc1ccc(NCC(=O)N/N=C/c2ccccc2[N+](=O)[O-])cc1 | 1011
16 | CCOc1ccc(NCC(=O)N/N=C/c2ccc([N+](=O)[O-])cc2)cc1 | 1137
17 | CCOc1ccc(NCC(=O)N/N=C/c2ccccc2O)cc1 | 659
18 | CCOc1ccc(NCC(=O)NN=C(C)C)cc1 | 623
19 | CCOc1ccc(NCC(=O)N/N=C(/C)c2ccccc2)cc1 | 310

Tested on: Mus musculus
Test: Anticonvulsant activity in pentylenetetrazole-induced Mus musculus albino (mouse) seizure model assessed as death time at 50 mg/kg, ip administered 30 min followed by pentylenetetrazole induction measured for 30 min (reference value: 416 +/- 58.2 secs)
Assay type: functional
Details: route intraperitoneal

Row | Compound | Time [s]
20 | CCOc1ccc(NCC(=O)N/N=C/c2ccc([N+](=O)[O-])cc2)cc1 | 1528
21 | CCOc1ccc(NCC(=O)N/N=C/c2ccccc2O)cc1 | 1055

Tested on: Mus musculus
Test: Anticonvulsant activity in Mus musculus albino (mouse) assessed as increase in onset of pentylenetetrazole-induced seizure at 50 mg/kg, ip administered 30 min followed by pentylenetetrazole induction measured for 30 min (reference value: 184 +/- 32 secs)
Assay type: functional
Details: route intraperitoneal

Row | Compound | Time [s]
22 | CCOc1ccc(NCC(=O)N/N=C/c2ccc([N+](=O)[O-])cc2)cc1 | 643
23 | CCOc1ccc(NCC(=O)N/N=C/c2ccccc2O)cc1 | 903

Tested on: Mus musculus
Test: Anticonvulsant activity in Mus musculus albino (mouse) assessed as increase in onset of pentylenetetrazole-induced seizure at 100 mg/kg, ip administered 30 min followed by pentylenetetrazole induction measured for 30 min (reference value: 184 +/- 32 secs)
Assay type: functional
Details: route intraperitoneal

Row | Compound | Time [s]
24 | CCOc1ccc(NCC(=O)N/N=C/c2ccccc2Cl)cc1 | 436
25 | CCOc1ccc(NCC(=O)N/N=C/c2ccccc2[N+](=O)[O-])cc1 | 275
26 | CCOc1ccc(NCC(=O)N/N=C/c2ccc([N+](=O)[O-])cc2)cc1 | 603
27 | CCOc1ccc(NCC(=O)N/N=C/c2ccccc2O)cc1 | 275
28 | CCOc1ccc(NCC(=O)NN=C(C)C)cc1 | 373
29 | CCOc1ccc(NCC(=O)N/N=C(/C)c2ccccc2)cc1 | 243

Tested on: Mus musculus
Test: Neurotoxicity in Mus musculus albino (mouse) assessed as minimal motor impairment at 220 mg/kg, ip measured for 180 secs by rotorod test
Assay type: toxicity, organism-based
Design: dose 220 mg/kg, route intraperitoneal
Details: in vivo, 0.05 h

Row | Compound | Activity
30 | CCCC(CCC)C(=O)[O-].[Na+] [VALPROATE SODIUM] | Non-toxic

Tested on: Mus musculus
Test: Anticonvulsant activity in Mus musculus albino (mouse) assessed as protection against pentylenetetrazole-induced seizure at 50 mg/kg, ip administered 30 min followed by pentylenetetrazole induction measured for 30 min relative to control
Assay type: functional
Details: route intraperitoneal

Row | Compound | Activity [%]
31 | CCOc1ccc(NCC(=O)N/N=C/c2ccc([N+](=O)[O-])cc2)cc1 | 16
32 | CCOc1ccc(NCC(=O)N/N=C/c2ccccc2O)cc1 | 22

Tested on: Mus musculus
Test: Anticonvulsant activity in pentylenetetrazole-induced Mus musculus albino (mouse) seizure model assessed as survival at 300 mg/kg, ip administered 30 min followed by pentylenetetrazole induction measured for 30 min relative to control
Assay type: functional
Details: 0.5 h, route intraperitoneal

Row | Compound | survival at 300 mg/kg [%]
33 | CCOc1ccc(NCC(=O)N/N=C/c2ccccc2Cl)cc1 | 12
34 | CCOc1ccc(NCC(=O)N/N=C/c2ccccc2[N+](=O)[O-])cc1 | 14
35 | CCOc1ccc(NCC(=O)N/N=C/c2ccc([N+](=O)[O-])cc2)cc1 | 44
36 | CCOc1ccc(NCC(=O)N/N=C/c2ccccc2O)cc1 | 0
37 | CCOc1ccc(NCC(=O)NN=C(C)C)cc1 | 0
38 | CCOc1ccc(NCC(=O)N/N=C(/C)c2ccccc2)cc1 | 0

Tested on: Mus musculus
Test: Anticonvulsant activity in pentylenetetrazole-induced Mus musculus albino (mouse) seizure model assessed as death time at 220 mg/kg, ip administered 30 min followed by pentylenetetrazole induction measured for 30 min (reference value: 416 +/- 58.2 secs)
Assay type: functional
Details: route intraperitoneal

Row | Compound | Time [s]
39 | CCCC(CCC)C(=O)[O-].[Na+] [VALPROATE SODIUM] | 1800

Tested on: Mus musculus
Test: Anticonvulsant activity in Mus musculus albino (mouse) assessed as decrease in pentylenetetrazole-induced total seizure time at 100 mg/kg, ip administered 30 min followed by pentylenetetrazole induction measured for 30 min (reference value: 9.9 +/- 1.3 secs)
Assay type: functional
Details: route intraperitoneal

Row | Compound | Time [s]
40 | CCOc1ccc(NCC(=O)N/N=C/c2ccccc2Cl)cc1 | 8.5
41 | CCOc1ccc(NCC(=O)N/N=C/c2ccccc2[N+](=O)[O-])cc1 | 8.7
42 | CCOc1ccc(NCC(=O)N/N=C/c2ccc([N+](=O)[O-])cc2)cc1 | 5.3
43 | CCOc1ccc(NCC(=O)N/N=C/c2ccccc2O)cc1 | 11
44 | CCOc1ccc(NCC(=O)NN=C(C)C)cc1 | 4.9
45 | CCOc1ccc(NCC(=O)N/N=C(/C)c2ccccc2)cc1 | 5.9

Tested on: Mus musculus
Test: Anticonvulsant activity in pentylenetetrazole-induced Mus musculus albino (mouse) seizure model assessed as survival at 100 mg/kg, ip administered 30 min followed by pentylenetetrazole induction measured for 30 min relative to control
Assay type: functional
Details: 0.5 h, route intraperitoneal

Row | Compound | survival at 100 mg/kg [%]
46 | CCOc1ccc(NCC(=O)N/N=C/c2ccccc2Cl)cc1 | 43
47 | CCOc1ccc(NCC(=O)N/N=C/c2ccccc2[N+](=O)[O-])cc1 | 12
48 | CCOc1ccc(NCC(=O)N/N=C/c2ccc([N+](=O)[O-])cc2)cc1 | 50
49 | CCOc1ccc(NCC(=O)N/N=C/c2ccccc2O)cc1 | 12
50 | CCOc1ccc(NCC(=O)NN=C(C)C)cc1 | 0
51 | CCOc1ccc(NCC(=O)N/N=C(/C)c2ccccc2)cc1 | 0

Tested on: Mus musculus
Test: Anticonvulsant activity in Mus musculus albino (mouse) assessed as protection against pentylenetetrazole-induced seizure at 300 mg/kg, ip administered 30 min followed by pentylenetetrazole induction measured for 30 min relative to control
Assay type: functional
Details: route intraperitoneal

Row | Compound | Activity [%]
52 | CCOc1ccc(NCC(=O)N/N=C/c2ccccc2Cl)cc1 | 0
53 | CCOc1ccc(NCC(=O)N/N=C/c2ccccc2[N+](=O)[O-])cc1 | 14
54 | CCOc1ccc(NCC(=O)N/N=C/c2ccc([N+](=O)[O-])cc2)cc1 | 22
55 | CCOc1ccc(NCC(=O)N/N=C/c2ccccc2O)cc1 | 0
56 | CCOc1ccc(NCC(=O)NN=C(C)C)cc1 | 0
57 | CCOc1ccc(NCC(=O)N/N=C(/C)c2ccccc2)cc1 | 0

Tested on: Mus musculus
Test: Anticonvulsant activity in Mus musculus albino (mouse) assessed as increase in onset of pentylenetetrazole-induced seizure at 300 mg/kg, ip administered 30 min followed by pentylenetetrazole induction measured for 30 min (reference value: 184 +/- 32 secs)
Assay type: functional
Details: route intraperitoneal

Row | Compound | Time [s]
58 | CCOc1ccc(NCC(=O)N/N=C/c2ccccc2Cl)cc1 | 590
59 | CCOc1ccc(NCC(=O)N/N=C/c2ccccc2[N+](=O)[O-])cc1 | 626
60 | CCOc1ccc(NCC(=O)N/N=C/c2ccc([N+](=O)[O-])cc2)cc1 | 885
61 | CCOc1ccc(NCC(=O)N/N=C/c2ccccc2O)cc1 | 616
62 | CCOc1ccc(NCC(=O)NN=C(C)C)cc1 | 425
63 | CCOc1ccc(NCC(=O)N/N=C(/C)c2ccccc2)cc1 | 414

Tested on: Mus musculus
Test: Anticonvulsant activity in Mus musculus albino (mouse) assessed as protection against pentylenetetrazole-induced seizure at 100 mg/kg, ip administered 30 min followed by pentylenetetrazole induction measured for 30 min relative to control
Assay type: functional
Details: route intraperitoneal

Row | Compound | Activity [%]
64 | CCOc1ccc(NCC(=O)N/N=C/c2ccccc2Cl)cc1 | 14
65 | CCOc1ccc(NCC(=O)N/N=C/c2ccccc2[N+](=O)[O-])cc1 | 0
66 | CCOc1ccc(NCC(=O)N/N=C/c2ccc([N+](=O)[O-])cc2)cc1 | 16
67 | CCOc1ccc(NCC(=O)N/N=C/c2ccccc2O)cc1 | 0
68 | CCOc1ccc(NCC(=O)NN=C(C)C)cc1 | 0
69 | CCOc1ccc(NCC(=O)N/N=C(/C)c2ccccc2)cc1 | 0

Tested on: Mus musculus
Test: Neurotoxicity in Mus musculus albino (mouse) assessed as minimal motor impairment at 300 mg/kg, ip measured for 180 secs by rotorod test
Assay type: toxicity, organism-based
Design: dose 300 mg/kg, route intraperitoneal
Details: in vivo, 0.05 h

Row | Compound | Activity
70 | CCOc1ccc(NCC(=O)N/N=C/c2ccc([N+](=O)[O-])cc2)cc1 | Toxic

Tested on: Mus musculus
Test: Anticonvulsant activity in pentylenetetrazole-induced Mus musculus albino (mouse) seizure model assessed as death time at 300 mg/kg, ip administered 30 min followed by pentylenetetrazole induction measured for 30 min (reference value: 416 +/- 58.2 secs)
Assay type: functional
Details: route intraperitoneal

Row | Compound | Time [s]
71 | CCOc1ccc(NCC(=O)N/N=C/c2ccccc2Cl)cc1 | 651
72 | CCOc1ccc(NCC(=O)N/N=C/c2ccccc2[N+](=O)[O-])cc1 | 734
73 | CCOc1ccc(NCC(=O)N/N=C/c2ccc([N+](=O)[O-])cc2)cc1 | 1286
74 | CCOc1ccc(NCC(=O)N/N=C/c2ccccc2O)cc1 | 896
75 | CCOc1ccc(NCC(=O)NN=C(C)C)cc1 | 606
76 | CCOc1ccc(NCC(=O)N/N=C(/C)c2ccccc2)cc1 | 483

Tested on: Mus musculus
Test: Anticonvulsant activity in Mus musculus albino (mouse) assessed as protection against pentylenetetrazole-induced seizure at 220 mg/kg, ip administered 30 min followed by pentylenetetrazole induction measured for 30 min relative to control
Assay type: functional
Details: route intraperitoneal

Row | Compound | Activity [%]
77 | CCCC(CCC)C(=O)[O-].[Na+] [VALPROATE SODIUM] | 50
